Reference: ChEMBL document CHEMBL5727714, “Amino compounds for treatment of medical disorders” (2020)

Target: Complement factor D (Homo sapiens, UniProt P00746)
Experiment: Inhibition Assay: Human Factor D (purified from human serum, Complement Technology, Inc.) at 80 nM final concentration is incubated with test compound at various concentrations for 5 minutes at room temperature in 50 mM Tris, 1M NaCl, pH 7.5. A synthetic substrate Z-L-Lys-SBzl and DTNB (Ellman's reagent) are added to final concentrations of 100 Î¼M each. Absorbance at 405 nm (A405) is recorded at 30 second intervals for 30 minutes using a microplate spectrophotometer. IC50 values are calculated by nonlinear regression of complement Factor D reaction rates as a function of test compound concentration.

Complement factor D, sequence (P00746 whole entry): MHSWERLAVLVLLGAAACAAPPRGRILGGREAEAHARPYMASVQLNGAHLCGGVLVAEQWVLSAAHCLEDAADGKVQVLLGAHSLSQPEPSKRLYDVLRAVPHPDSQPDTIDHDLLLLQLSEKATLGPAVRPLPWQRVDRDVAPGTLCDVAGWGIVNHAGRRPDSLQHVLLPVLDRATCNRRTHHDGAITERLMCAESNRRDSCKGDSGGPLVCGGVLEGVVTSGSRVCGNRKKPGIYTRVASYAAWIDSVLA

SMILES: CC(=O)c1cn(CC(=O)N2C[C@H](F)C[C@H]2C(=O)Nc2cccc(Cl)c2C(F)(F)F)c2ccc(Nc3cncnc3)cc12
- IC50: < 1000 nM
